Experimental data published in PMC10294875, “Ether Derivatives of Naringenin and Their Oximes as Factors Modulating Bacterial Adhesion” (Antibiotics, 2023).

How the values were obtained:
cell membranes = tested on: cell membranes; set-up: method as in PMID 10839220; conditions: cited from earlier work
3T3-L1 cell line = test: SRB assay, antiproliferative activity against 3T3-L1; type: cell-based, mouse; conditions: Mus musculus; 2 h incubation, SRB assay, 3T3-L1
Experimental: (§1) The human adenocarcinoma cell line, HT-29 (ATCC HTB-38), was cultured in αMEM medium (IITD PAN) supplemented with 10% fetal bovine serum, FBS (Sigma-Aldrich, Taufkirchen, Germany), 100 U/mL penicillin, 100 µg/mL streptomycin antibiotic solution (Sigma-Aldrich, Taufkirchen, Germany), and 2 mM glutamine solution (Sigma-Aldrich, Taufkirchen, Germany). Cells from less than 20 passages were used for the study. In turn, preadipocytes from mouse embryos with the morphology of fibroblast cells, line 3T3-L1 (ATCC CL-173), were cultured in DMEM high-glucose medium (Life Technologies Corporation, Carlsbad, CA, USA) with the same supplements as above. Cells from less than 14 passages were used for the study. Both tested cell lines were grown at 37 °C in 5% CO2.
(§2) The effect of O-alkyl derivatives of naringenin and their oximes on eukaryotic cells was checked using a slightly modified SRB test described earlier. Firstly, HT-29 (1 × 10^5 cells/mL) and 3T3-L1 (5 × 10^4 cells/mL) cell lines were incubated in adherent microtiter plates under the conditions described above. The cells were then treated for 2 h with the tested compounds 1a–10a and 1b–10b at concentrations of 1, 5, 10, 25, 50, 75, and 100 µg/mL each. After this time, the medium was removed and replaced with one containing 50% (wt/vol) trichloroacetic acid (TCA; Sigma-Aldrich, Taufkirchen, Germany). Following 1 h of incubation at 4 °C, the plate was rinsed with water, and then an acidic solution of 0.4% sulforhodamine B (SRB) (Sigma-Aldrich, Taufkirchen, Germany), was added to the dried wells and incubated in the dark for half an hour. At the end of this time, the SRB solution was replaced by 1% (vol/vol) acetic acid, and the stained protein precipitate was dissolved in 10 mM Tris base solution (pH 10.5). Absorbance was measured at 560 nm in a plate reader (GloMax Discover Microplate Reader, Promega).
(§3) The cytotoxic effect of O-alkyl derivatives of naringenin and their oximes on eukaryotic cells was expressed as the concentration of the tested compounds at which 50% growth inhibition of the tested cell lines was observed. Values were presented in the form of the survival index (SI)–IC50. All determinations were repeated in three independent experiments, each performed in three technical replicates. Moreover, the effect of DMSO (Sigma-Aldrich, Taufkirchen, Germany), the solvent present in all the initial solutions of the tested compounds, on the growth of the cell lines used in the study was also verified.

HT-29 cell line = test: SRB assay, antiproliferative activity against HT-29; type: cell-based, human; conditions: Homo sapiens; 2 h incubation, SRB assay, HT-29
Experimental: as §1, §2, §3

[1] = tested on: Escherichia coli K12 (ATCC 10798); test: Bioflux microfluidic adhesion: E. coli to HT-29 cell line; type: cell-based; conditions: 50 µg/mL, control 0.65 ± 0.07
Experimental: (§4) Determination of the impact of a dynamic medium flow on the adhesive capacity of bacteria was performed using the Bioflux 1000Z (Fluxion, San Francisco, CA, USA) with a coupled microscope environmental chamber (Pecton Incubator XL S1, Carl Zeiss, Jena, Germany), enabling the maintenance of 37 °C and microaerophilic conditions. At the very beginning, all channels of dedicated microfluidic plates (Fluxion, San Francisco, CA, USA) were flushed with 100 µL of αMEM or DMEM high-glucose medium with supplements (further named “cell line medium”; for details of the supplementation see “Cell culture procedure”) applying an intensive flow of 10 dyne/cm^2 for 10 s. After unblocking the lumen of the channels, the inlet and outlet wells were emptied, and 20 µL of 100 µg/mL fibronectin solution (Sigma-Aldrich, Taufkirchen, Germany) was added to each inlet channel. The medium was turned in the outlet direction at a flow rate of 1 dyne/cm^2 for 1 min. After this step, the plate was left for a 1 h incubation period to allow fibronectin to be absorbed on the surface of the microcapillaries. […] After completing this stage, photographs of the microcapillaries containing the tested biological materials were taken using an inverted fluorescence microscope (GabH, Jena, Germany) and the Bioflux Montage software (Fluxion, San Francisco, CA, USA). […]

[2] = tested on: Escherichia coli K12 (ATCC 10798); test: Bioflux microfluidic adhesion: E. coli to 3T3-L1 cell line; type: cell-based; conditions: 50 µg/mL, control 0.37 ± 0.13
Experimental: as §4

[3] = tested on: Enterococcus faecalis (ATCC 29212); test: Bioflux microfluidic adhesion: E. faecalis to HT-29 cell line; type: cell-based; conditions: 50 µg/mL, control 1.55 ± 0.15
Experimental: as §4

[4] = tested on: Escherichia coli K12 (ATCC 10798); test: Adhesion assay, static conditions: E. coli to 3T3-L1 cell line; type: cell-based
Experimental: The study used two reference strains, Escherichia coli K12 (ATCC 10798) and Enterococcus faecalis (ATCC 29212), obtained from the American Type Culture Collection. Both strains were stored in trypticase soy broth (TSB; OXOID, Basingstoke, UK) with the addition of 30% glycerol at −70 °C in the museum resources of the Department of Microbiology at the Wroclaw Medical University.
For studies determining the interaction of bacteria with eukaryotic cells, suspensions of the tested strains were prepared in Luria broth (LB, Becton, Dickinson and Company, USA) medium with a bacterial density of 6 × 10^8 CFU/mL.
The adhesion ability of the tested bacterial strains to HT-29 and 3T3-L1 cell lines was determined by an in vitro adhesion assay as described previously. Eukaryotic cells were infected with prokaryotic cells in the presence of the examined compounds in pre-selected concentrations at an MOI (multiplicity of infection) ratio of 50. Cells were exposed to the tested strains and compounds for 2 h. After this time, unbound bacteria were removed by washing with PBS (Life Technologies Corporation, Carlsbad, CA, USA). The lysates acquired by cell lysis (0.5% Triton X-100 in LB): 90 min, 37 °C, 5% CO2 atmosphere, were then seeded onto TSA and MC media for E. faecalis and E. coli, respectively. The assays were performed in at least three independent experiments (cells from subsequent passages), each in triplicate. A control without tested compounds was set for each strain.

[5] = tested on: Enterococcus faecalis (ATCC 29212); test: Bioflux microfluidic adhesion: E. faecalis to 3T3-L1 cell line; type: cell-based; conditions: 50 µg/mL, control 0.29 ± 0.11
Experimental: as §4

Compound | concentration at which the membrane-solidifying effect is revealed (cell membranes) [µg/mL] | IC50 (3T3-L1 cell line) [µg/mL] | IC50 (HT-29 cell line) [µg/mL] | BB/EC ratio [1] | BB/EC ratio (area of bacterial biomass adhered to the surface of the eukaryotic cells) [2] | BB/EC ratio [3] | effect on adhesion of E. coli to 3T3-L1 (in words) [4] | BB/EC ratio [5]
O=C1C[C@@H](c2ccc(O)cc2)Oc2cc(O)cc(O)c21 [NG, naringenin] | ≥ 2.5 | > 100 | > 100 | – | – | – | – | –
CCCCCCCCCOc1ccc([C@@H]2CC(=NO)c3c(O)cc(OCCCCCCCCC)cc3O2)cc1 [Compound 8b, 7,4’-di-O-nonylnaringenin oxime] | – | > 100 | > 100 | 1.03 ± 0.06 | 0.6 ± 0.12 | 1.36 ± 0.08 | strongly enhance | 0.28 ± 0.15
